Experimental findings from patent US20250325526A1, “USE OF TETRAHYDRONAPHTHYRIDINE DERIVATIVE FOR PREPARING PRODUCT FOR IMPROVING HYPERPIGMENTATION” (SCINNOHUB PHARMACEUTICAL CO., LTD, priority 2022, published 2025) are described below.

Format in all cases: in vivo, SD rats
Test [1] deals with melanin granules. Kind of test: Rat melasma model: Fontana-Masson staining of melanin granules. As to conditions: for distribution of melanin granules: skin collected Day 58, tranexamic acid 5 mg/mL; for melanin granules in the skin tissue: skin collected Day 58, vs model group, tranexamic acid 5 mg/mL.
Procedure: 3.3 Detection of indicators: The first day of modeling was denoted as Day 1, and the experimental period lasted for 58 days. […] Then the rats in each group were euthanized, their backs were depilated, and 0.5 g of full-thickness skin tissue from the depilated back was taken and placed into an ice bath, and normal saline was added to make a 10% tissue homogenate. The homogenate was centrifuged at 3000 r/min at room temperature for 10 min to obtain a supernatant of skin tissue homogenate. ELISA was carried out to detect the expression of endothelin-1 in the supernatant of skin tissue homogenate. The skin of the modeling area on the back of rats was taken and immersed in 10% neutral formaldehyde for fixation at room temperature for 4 days. Four days later (Day 62), paraffin embedding and sectioning were performed to obtain paraffin sections of skin. The HE staining was performed to observe the pathological changes of the skin tissues of rats in each group. Staining method: The dried paraffin sections were conventionally dewaxed with xylene, hydrated with descending gradient ethanol, and washed with distilled water; the nuclei were stained with hematoxylin for 2 minutes, differentiated with hydrochloric acid and alcohol for a few seconds, and washed with water to return to blue; the sections were stained with eosin stain for 1 minute, and the residual stain was washed with water; the sections were dehydrated and dried with gradient alcohol, transparentized with xylene, and blocked with neutral gum, then observed under microscope. The epidermal hyperplasia of the skin tissue sample sections, arrangement of basal cells, presence or absence of inflammatory cell infiltration in the dermis, and changes in the number of capillaries in all groups were observed according to the evaluation indexes. Fontana-Masson staining was performed to observe the skin pigmentation of the rats. […] An immunohistochemistrical assay was performed to detect the expression of tyrosinase in the skin in each group.
The test system of test [2] is tyrosinase. Kind of test: Rat melasma model: immunohistochemical staining of tyrosinase in skin. The following applies: for tyrosinase positive rate in the skin tissues: immunohistochemistry, skin collected Day 58, vs model group, P<0.001; for tyrosinase expression in the skin tissues: vs model group, P<0.01. From the text: (§1) 3.1 Modeling: Before the experiment, on Day 0, SD rats (purchased from Beijing Vital River Experimental Animal Technology Co., Ltd., SPF grade, female, 7-8 weeks old, weighing 200±20 g) were randomly grouped and numbered. The hairs on the backs of animals in each group were shaved using an electric shaver, and the short hairs on the skin were removed with a depilatory cream to fully expose the back skin. The hair removal area was slightly larger than the actual modeling area (5 cm×5 cm). Each rat was depilated once every 2-3 days to ensure that the back skin was fully exposed. On the next day (Day 1), rats in each group were weighed, and the weights were recorded when the electronic scale reading was stable. A progesterone injection was injected intramuscularly at the base of the rat's thigh (alternately between the thighs on both sides), with a drug concentration of 20 mg/mL and an injection dose of 25 mg/kg, once a day. After the intramuscular injection, the rat's back skin was irradiated with ultraviolet light at a wavelength of 280-320 nm. The light source was about 30 cm away from the rat's back skin, and the irradiation time lasted for 60 minutes each time, for a total of 4 weeks.
The injection volume was 0.05 mL/cm^2, 5 days each time, and the administration lasted for 30 days continuously. The animals in the control group (only depilated, without modeling) and the model group were given the solvent.
3.3 Detection of indicators: The first day of modeling was denoted as Day 1, and the experimental period lasted for 58 days. After the end of the experiment (Day 58), 1 hour after the last administration, the skin of the modeling area of the rats in each group was photographed for scoring of apparent indexes (scoring criteria was provided in Table 1). Then the rats in each group were euthanized, their backs were depilated, and 0.5 g of full-thickness skin tissue from the depilated back was taken and placed into an ice bath, and normal saline was added to make a 10% tissue homogenate. The homogenate was centrifuged at 3000 r/min at room temperature for 10 min to obtain a supernatant of skin tissue homogenate. ELISA was carried out to detect the expression of endothelin-1 in the supernatant of skin tissue homogenate. The skin of the modeling area on the back of rats was taken and immersed in 10% neutral formaldehyde for fixation at room temperature for 4 days. Four days later (Day 62), paraffin embedding and sectioning were performed to obtain paraffin sections of skin. The HE staining was performed to observe the pathological changes of the skin tissues of rats in each group. […]

The subject of test [3] is rat models of melasma. In words: Rat melasma model (UVB irradiation + progesterone): apparent indexes, lesion color and area. The following applies: Day 58, vs model group, P<0.05; local injection; tranexamic acid 5 mg/mL; compounds under test 5 mg/mL and 1.5 mg/mL.
Text: as §1
(§2) The injection volume was 0.05 mL/cm^2, 5 days each time, and the administration lasted for 30 days continuously. […]

Test [4] relates to rat models of melasma. In words: Rat melasma model: HE staining of skin tissues. The following applies: vs model group, tranexamic acid 5 mg/mL, compounds under test 5 mg/mL and 1.5 mg/mL.
Text: as §1, §2

In test [5] the test system is endothelin-1. In words: Rat melasma model: ELISA of ET-1 in supernatant of skin tissue homogenate. As to conditions: Day 58, vs model group, P<0.01, tranexamic acid 5 mg/mL, compounds under test 5 mg/mL and 1.5 mg/mL.
Text: as §1, §2
In general terms: In an ELISA, binding on a coated surface is turned into a signal by an enzyme label.

Take `Cl.O=S(=O)(O)c1ccc2c(n1)CC(CCCc1ccccc1)NC2` (centres unmarked) [compound under test 3, 7-(3-phenylpropyl)-5,6,7,8-tetrahydro-1,6-naphthyridine-2-sulfonic acid hydrochloride]: in test [1], the “distribution of melanin granules” value is “distributed discontinuously only in the basal layer” and the “melanin granules in the skin tissue” value was “significantly reduced”. In addition, the “tyrosinase positive rate in the skin tissues” value in test [2] is on record as “significantly reduced”.

Consider `NC[C@H]1CC[C@H](C(=O)O)CC1` [tranexamic acid, Tranexamic acid], for which, in test [3], the “color of the lesion areas” value is “significantly lighter” and the lesion area entry is “significantly reduced”. Further, in test [4], the inflammatory cell infiltration entry is listed as “improved”; the “thickness of the basal layer and stratum spinosum of the epidermal tissues” value is recorded as “significantly reduced”. Besides, the “melanin granules in the skin tissue” value in test [1] is recorded as “reduced”. Moreover, the “ET-1 content in the skin tissue homogenate” value in test [5] is given as “significantly reduced”.

Consider `Cl.O=P(O)(O)c1ccc2c(n1)CCNC2` [compound under test 2, (5,6,7,8-tetrahydro-1,6-naphthyridin-2-yl)phosphonic acid hydrochloride], for which the “tyrosinase expression in the skin tissues” value in test [2] (1.5 mg/mL group) and in test [2] (5 mg/mL group) was “significantly different from those in the model group” throughout.

As for `Cl.O=C(O)c1ccc2c(n1)CCNC2` [compound under test 1, 5,6,7,8-tetrahydro-1,6-naphthyridine-2-carboxylic acid hydrochloride], in test [1], the “distribution of melanin granules” value is given as “distributed discontinuously only in the basal layer” and the “melanin granules in the skin tissue” value was “significantly reduced”. Moreover, in test [2], the “tyrosinase positive rate in the skin tissues” value is “significantly reduced”.
